Tests used:
Solubility in water = type: physicochemical
[1] = Hygroscopicity / water absorption on exposure to humidity; type: physicochemical
[2] = Microdialysis, extracellular acetylcholine levels in brain of freely moving rats; type: in vivo, rat; conditions: 2.5-10 mg/kg s.c.
Method: The animals were administered 1-[2-(2,4-dimethylphenylsulfanyl)phenyl]piperazine, HBr salt.
Male Sprague-Dawley rats, initially weighing 275-300 g, were used. The animals were housed under a 12-hr light/dark cycle under controlled conditions for regular in-door temperature (21±2° C.) and humidity (55±5%) with food and tap water available ad libitum.
Rats were anaesthetised with hypnorm/dormicum (2 ml/kg) and intracerebral guide cannulas (CMA/12) were stereotaxically implanted into the brain, aiming at positioning the dialysis probe tip in the ventral hippocampus (co-ordinates: 5.6 mm posterior to bregma, lateral −5.0 mm, 7.0 mm ventral to dura) or in the prefrontal cortex (co-ordinates: 3.2 mm anterior to bregma; lateral, 0.8 mm; 4.0 mm ventral to dura). […] The body temperature of the animals was monitored by rectal probe and maintained at 37° C. […]
The compound dissolved in 10% HPbetaCD and injected subcutaneously (2.5-10 mg/kg). Doses are expressed as mg salt/kg body weight. […]
Concentration of acetylcholine (ACh) in the dialysates was analysed by means of HPLC with electrochemical detection using a mobile phase consisting of 100 mM disodium hydrogenphosphate, 2.0 mM octane sulfonic acid, 0.5 mM tetramethylammonium chloride and 0.005% MB (ESA), pH 8.0. […] The latter was detected electrochemical by using a platinum electrode (Analytical cell: ESA, model 5040). […]

[3] = Contextual fear conditioning in rats; type: in vivo, rat; conditions: for time spent freezing during the retention test: test 24 h after acquisition
Description: The compound administered in the present experiment was 1-[2-(2,4-dimethylphenyl-sulfanyl)phenyl]piperazine HBr salt.
We have studied the effect of the compound on acquisition, consolidation and recall of contextual fear conditioning in rats. In the fear conditioning paradigm animals learn to associate a neutral environment (context, the training chamber, CS) with an aversive experience (an electrical foot-shock, US). During re-exposure to the training chamber, animals express a freezing behaviour, which is taken as a direct measure of the fear-related memory [Pavlov J. Biol. Sci., 15, 177-182, 1980]. […] Neurosci., 106, 274-285, 1992].
Adult male Sprague-Dawley rats (weighing 250-300 g at time of training) from Charles River Laboratories, housed two per cage under a 12 h light/dark cycle, were used. Food and water were available ad libitum. Rats were used 1 week after arrival. The compound was dissolved in 10% HPbetaCD and injected subcutaneously. The drug was administered in a volume of 2.5 ml/kg.
Training and testing were conducted in a soundproof chamber (30×20×40 cm) housed in an isolated room and connected to a ventilation system. Illumination was provided by a white light (60 Watt). The floor of the chamber consisted of a metal grid attached to an electric shock generator. Prior to training and testing, the chamber was cleaned with a 70% ethanol solution. A video camera allowed for behavioral observations and recording of the training session for off-line analysis.
During the acquisition animals were allowed to freely explore the novel environment for a 1 min habituation period, which co-terminated with one inescapable foot-shock (unconditioned stimulus, US) through the electrifiable grid floor. […] Animals remained in the conditioning chamber for another 60 s after the US. Freezing behaviour was scored during the first 58 s (pre-shock acquisition; experimenter blinded to groups) to determine baseline-freezing responses to the context. At the end of the acquisition animals were gently removed and placed into their home cages. After 24 h the same animals were reintroduced into the training context (fear conditioning chamber) and a 2 min retention test was performed. During this period no foot shocks were applied. Freezing behaviour was scored during the whole test period with the experimenter blinded to groups and presented as percent of total test period.

[4] = Clinical trial, sexually related adverse effects reported by patients; type: in vivo, human
Method: (§1) The HAM-D scale may be used to assess the severity of depression in patients by means of a 24 items questionnaire. Item 4, 5 and 6 of the scale relate to how the patients sleep, i.e., is it easy to fall asleep (insomnia Early), does the patient wake up during the night (Insomnia Middle), and does the patient wake up early in the morning (Insomnia Late). The compound was tested at 5 and 10 mg daily against placebo with approximately 100 patients per arm. […] It is well-known that sleep disturbances are a general adverse effect of most antidepressants. In particular SSRI's and compounds which inhibit the noradrenaline transporter are reported to give rise to problems with sleep initiation and maintenance and problems with insomnia are also often reported [Int.Clin.Psychpharm., 21 (suppl 1), S25-S29, 2006]. Others report that such compounds give rise to suppressed REM sleep, increased sleep latency, less efficient sleep, increase in nocturnal awakenings, and fragmentation of sleep [Hum.Psychopharm.Clin.Exp., 20, 533-559, 2005].
The above mentioned clinical trial also captured sexual adverse effects reported by the patients.

[5] = Clinical trial, HAM-D items 4, 5 and 6 (insomnia early, middle, late); type: in vivo, human; conditions: 5 and 10 mg daily vs placebo, 6 weeks, approx. 100 patients per arm
Method: as §1

[6] = Mouse intradermal formalin test; type: in vivo; conditions: ~20-30 minutes after formalin
Method: In this model, mice receive an injection of formalin (4.5%, 20 μl) into the left hind paw. The irritation caused by the formalin injection elicits a characteristic biphasic behavioural response, as quantified by the amount of time spent licking the injured paw.
The first phase (˜0-10 minutes) represents direct chemical irritation and nociception, whereas the second phase (˜20-30 minutes) is thought to represent pain of […] origin. The two phases are separated by a quiescent period in which behaviour returns to normal. The effectiveness of test compounds to reduce the painful stimuli is assessed by counting the amount of time spent licking the injured paw in the two phases.

[7] = molecular target: Human serotonin transporter (Homo sapiens, UniProt P31645); assay: Human serotonin transporter, blockade of 5-HT uptake; type: biochemical
Human serotonin transporter, sequence (P31645 whole entry): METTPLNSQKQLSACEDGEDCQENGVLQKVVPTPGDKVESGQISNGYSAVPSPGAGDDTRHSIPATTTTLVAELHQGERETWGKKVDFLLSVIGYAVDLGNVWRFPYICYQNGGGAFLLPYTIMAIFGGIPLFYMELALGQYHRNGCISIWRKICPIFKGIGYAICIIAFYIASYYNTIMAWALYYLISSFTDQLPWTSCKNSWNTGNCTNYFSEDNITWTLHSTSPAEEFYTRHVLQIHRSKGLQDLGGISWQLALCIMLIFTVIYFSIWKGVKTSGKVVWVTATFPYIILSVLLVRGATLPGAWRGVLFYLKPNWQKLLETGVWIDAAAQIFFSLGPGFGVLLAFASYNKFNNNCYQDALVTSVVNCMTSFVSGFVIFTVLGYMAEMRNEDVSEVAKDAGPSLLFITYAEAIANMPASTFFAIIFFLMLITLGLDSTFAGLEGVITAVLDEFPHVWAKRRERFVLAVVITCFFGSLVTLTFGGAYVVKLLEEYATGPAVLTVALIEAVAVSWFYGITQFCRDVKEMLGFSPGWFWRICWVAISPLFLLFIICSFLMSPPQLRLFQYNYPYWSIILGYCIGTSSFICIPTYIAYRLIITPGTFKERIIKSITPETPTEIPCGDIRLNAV

Br.Cc1ccc(Sc2ccccc2N2CCNCC2)c(C)c1 [beta form of the hydrobromide]
solubility in water (Solubility in water): 1200 µg/mL

Br.Cc1ccc(Sc2ccccc2N2CCNCC2)c(C)c1 [hemi hydrate of the hydrobromide]
water content ([1]; room temperature and 95% RH): about 3.7%

Br.Cc1ccc(Sc2ccccc2N2CCNCC2)c(C)c1 [gamma form of the hydrobromide]
water absorbed ([1]; 30% RH at room temperature): about 2%

Br.Cc1ccc(Sc2ccccc2N2CCNCC2)c(C)c1 [alpha form of the hydrobromide]
solubility in water (Solubility in water): 2000 µg/mL

Cc1ccc(Sc2ccccc2N2CCNCC2)c(C)c1 [Crystalline base, 1-[2-(2,4-dimethylphenylsulfanyl)-phenyl]piperazine]
hygroscopicity [1]: not hygroscopic

Br.Cc1ccc(Sc2ccccc2N2CCNCC2)c(C)c1 [1-[2-(2,4-dimethylphenylsulfanyl)phenyl]piperazine HBr salt]
extra-cellular levels of ACh in prefrontal cortex ([2]; rat prefrontal cortex): significantly increased
extra-cellular levels of ACh in ventral hippocampus ([2]; rat ventral hippocampus): significantly increased
time spent freezing during the retention test ([3]; 5 mg/kg s.c. 1 h prior to acquisition, n=6): 39.24±13.76%
freezing behaviour during the memory test ([3]; 5 mg/kg s.c. 1 h prior to the retention test, n=9, p<0.05): 12.86±3.57%
time spent freezing during the retention test ([3]; 5 mg/kg s.c. after the acquisition session, n=8, p<0.05): 45.58±4.50%
time spent freezing during the retention test ([3]; 10 mg/kg s.c. 1 h prior to acquisition, n=10, p<0.01): 52.15±5.68%
baseline freezing behaviour before the foot shock ([3]; 1, 5 and 10 mg/kg s.c., 1 h prior to acquisition): does not affect baseline freezing behaviour

Cc1ccc(Sc2ccccc2N2CCNCC2)c(C)c1 [compound I, 1-[2-(2,4-dimethylphenyl-sulfanyl)-phenyl]piperazine]
number of patients reporting Anorgasmia ([4]; 5 mg daily): 0
number of patients reporting Ejaculation delayed ([4]; 5 mg daily): 0
number of patients reporting Erectile dysfunction ([4]; 5 mg daily): 0
number of patients reporting Libido decreased ([4]; 5 mg daily): 1
number of patients reporting Loss of libido ([4]; 5 mg daily): 1
number of patients reporting Orgasm abnormal ([4]; 5 mg daily): 0
number of patients reporting Orgasmic sensation decreased ([4]; 5 mg daily): 0
number of patients reporting Anorgasmia ([4]; 10 mg daily): 0
number of patients reporting Ejaculation delayed ([4]; 10 mg daily): 0
number of patients reporting Erectile dysfunction ([4]; 10 mg daily): 0
number of patients reporting Libido decreased ([4]; 10 mg daily): 1
number of patients reporting Loss of libido ([4]; 10 mg daily): 0
number of patients reporting Orgasm abnormal ([4]; 10 mg daily): 0
number of patients reporting Orgasmic sensation decreased ([4]; 10 mg daily): 0
change in sleep pattern, HAM-D items 4-6 [5]: large and dose dependent improvement of the sleep pattern
second phase pain scores (time spent licking the paw) [6]: significant reduction
IC50 [7]: 5.4 nM

Source: US11628166B2, “Therapeutic uses of compounds having combined sert, 5-HT3 and 5-HT1a activity” (H. Lundbeck A/S, priority 2007, dated 2023)
